Measurements published in patent publication US8791102B2, “Acetanilide sphingosine-1-phosphate receptor antagonists” (Exelixis, Inc., priority 2008, dated 2014).

Each compound was assayed against T1, human S1P1 receptors (Homo sapiens, UniProt P21453) (assay: S1P1R antagonist assay (fluorescent membrane potential dye, cAMP readout)). Settings: HEK293 cells expressing human S1P1 receptors and CNG channel; 500 nM NECA; S1P1R agonist 10 nM; 90 minutes; read-out: EC50 or IC50 value.
T1 construct: host or cells: HEK293
T1 sequence (P21453 whole entry): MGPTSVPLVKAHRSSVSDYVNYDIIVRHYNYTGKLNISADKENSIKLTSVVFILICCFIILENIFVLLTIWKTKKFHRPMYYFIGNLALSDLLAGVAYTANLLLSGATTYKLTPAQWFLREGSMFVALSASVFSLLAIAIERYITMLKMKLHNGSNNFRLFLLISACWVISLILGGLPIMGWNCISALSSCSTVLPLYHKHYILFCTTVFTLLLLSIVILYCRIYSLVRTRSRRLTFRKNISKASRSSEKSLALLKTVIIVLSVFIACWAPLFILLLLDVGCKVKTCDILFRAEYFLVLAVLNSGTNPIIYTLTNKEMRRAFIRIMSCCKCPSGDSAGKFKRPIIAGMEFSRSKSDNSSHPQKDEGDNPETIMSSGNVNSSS
Format: cell-based
From the text: The S1P1R antagonist assay is a fluorescent membrane potential dye measurement assay, indicative of intracellular cAMP changes due to G protein-coupled receptor activation. HEK293 cells engineered to express human S1P1 receptors and a cyclic nucleotide-gated (CNG) channel are obtained from BD Biosciences, 80300-250. The CNG channels are activated by elevated levels of cAMP, resulting in ion flux and cell membrane depolarization. Membrane depolarization is detected with a membrane potential dye. Stimulation of the cells with 5′-(N-ethylcarboxamido)adenosine (NECA), an A2b receptor agonist (Sigma, E2387), elicits an A2bR-dependent increase in cAMP.
Subsequent exposure of the cells to a S1P1R agonist suppresses the NECA induced increase in cAMP through S1P1R-specific signaling by inhibiting adenylyl cyclase and the formation of cAMP from ATP. The degree to which a test compound overcomes the S1P1R agonist suppression of the NECA induced increase in cAMP is a measure of S1P1R antagonist activity. Antagonist activity is quantified as the IC50 (i.e., the concentration needed to elicited one-half of the maximum response of the test compound) and/or as the EC50 (i.e., the concentration needed to elicited one-half of the NECA induced stimulation).
Day 1: Freshly thawed cells were plated into 384-well plates (Corning, 3683) at a density of 14,000 cells/well in 20 μL, complete media and incubated for 16 hours at 37° C., 5% CO2 and 99% relative humidity. Complete media included Dulbecco's modified Eagle's medium (Invitrogen, 11965-092), 10% Fetal bovine serum (Hyclone, SH30071.03), 250 μg/mL geneticin (Invitrogen, 10131-027), and 1 μg/mL Puromycin (Fluka, 82595).
Day 2: Membrane potential dye (20 μL, BD Biosciences, 341833) was added to each well and the plates were incubated for 2.5 hours at ambient temperature. Test compounds (20 μL) were added to the wells at various concentrations (≦10 μM, 1 to 3 dilutions) in a NECA base solution and incubated for 90 minutes in the presence of the S1P1R agonist {4-((4-phenyl-5-trifluoromethyl-2-thienyl)methoxy)benzyl}-3-azetidinecarboxylic acid (10 nM). The NECA-base solution contained Dulbecco's phosphate-buffered saline (Invitrogen, 14190-136), 2.5% DMSO (Fluka, 41648), 25 μM Ro 20-1724 (Sigma, B8279), and 500 nM NECA).
Assay plates were read with a PerkinElmer EnVision reader (Excitation 350 nm, Emission 590 nm) at time T=0 minutes, before compound addition and at time T=90 minutes. The signal was calculated as the ratio T90/T0. Data was analyzed in ActivityBase XE and graphs showing log of compound concentration (X-axis) vs. % activity (Y-axis) were generated for IC50 determinations. Percent activity was calculated with the following formula: (Signal−Agonist Control Signal)/(NECA Control Signal−Agonist Control Signal)×100.

Structure (SMILES) | IC50 [nM]
CC(C)(C(=O)N[C@@H](COCc1ccccc1)C(=O)Nc1ccc(Oc2ccc(F)cc2)cc1)c1c[nH]cn1 [Compound 213, (S)-2-(2-(1H-imidazol-4-yl)-2-methylpropanamido)-3-(benzyloxy)-N-(4-(4-fluorophenoxy)phenyl)propanamide] | ≤ 300
O=C(Nc1ccc(Oc2ccc(F)cc2)cc1)[C@@H]1C[C@@H](Cc2ccsc2)CN1C(=O)Cn1cncn1 [Compound 72, (2S,4R)-1-(2-(1H-1,2,4-triazol-1-yl)acetyl)-N-(4-(4-fluorophenoxy)phenyl)-4-(thiophen-3-ylmethyl)pyrrolidine-2-carboxamide] | ≤ 300
COC(=O)C1CCN(CC(=O)N[C@@H](COCc2ccccc2)C(=O)Nc2ccc(Oc3ccc(F)cc3)cc2)CC1 [Compound 238, (S)-methyl 1-(2-(3-(benzyloxy)-1-(4-(4-fluorophenoxy)phenylamino)-1-oxopropan-2-ylamino)-2-oxoethyl)piperidine-4-carboxylate] | 300 to 1000
CN(CC(=O)NC(COCc1ccccc1)C(=O)Nc1ccc(Oc2ccccc2)cc1)C(=O)c1ccccc1 (stereo not drawn) [Compound 340, N-(2-oxo-1-{[(phenylmethyl)oxy]methyl}-2-{[4-(phenyloxy)phenyl]amino}ethyl)-N-benzoyl-N-methylaminoacetamide] | 300 to 1000
O=C(Cc1cnc[nH]1)N[C@@H](COCc1ccccc1)C(=O)Nc1ccc(Oc2ccc(Cl)cc2)cc1 [Compound 145, (S)-2-(2-(1H-imidazol-5-yl)acetamido)-3-benzyloxy-N-(4-(4-chlorophenoxy)phenyl)propanamide] | ≤ 300
O=C(Nc1ccc(Oc2ccc(F)cc2)cc1)[C@@H]1C[C@@H](Cc2ccccc2)CN1C(=O)CN1C(=O)CSC1=S [Compound 99, (2S,4R)-4-benzyl-N-(4-(4-fluorophenoxy)phenyl)-1-(2-(4-oxo-2-thioxothiazolidin-3-yl)acetyl)pyrrolidine-2-carboxamide] | ≤ 300
Cc1ccc(C[C@@H]2C[C@@H](C(=O)Nc3ccc(Oc4ccc(F)cc4)cc3)N(C(=O)Cn3ccnn3)C2)cc1 [Compound 3] | ≤ 300
O=C(Cc1c[nH]cn1)N[C@@H](COCc1ccccc1)c1nc2cc(Oc3ccc(F)cc3)ccc2[nH]1 [Compound 59, (R)—N-(2-(benzyloxy)-1-(5-(4-fluorophenoxy)-1H-benzo[d]imidazol-2-yl)ethyl)-2-(1H-imidazol-4-yl)acetamide] | 300 to 1000
CS(=O)(=O)CC(=O)N1C[C@H](Cc2ccccc2)C[C@H]1C(=O)Nc1ccc(Oc2ccc(F)cc2)cc1 [Compound 87, (2S,4R)-4-benzyl-N-(4-(4-fluorophenoxy)phenyl)-1-(2-(methylsulfonyl)acetyl)pyrrolidine-2-carboxamide] | ≤ 300
O=C(Nc1ccc(Oc2ccc(F)cc2)cc1)[C@@H]1C[C@@H](NCc2ccsc2)CN1C(=O)Cn1cncn1 [Compound 182, (2S,4R)-1-(2-(1H-1,2,4-triazol-1-yl)acetyl)-N-(4-(4-fluorophenoxy)phenyl)-4-(thien-3-ylmethylamino)pyrrolidine-2-carboxamide] | ≤ 300
O=C(CN1CCOCC1)N[C@@H](COCc1ccc(F)cc1)C(=O)Nc1ccc(Oc2ccc(F)cc2)cc1 [Compound 210, (S)-3-(4-fluorobenzyloxy)-N-(4-(4-fluorophenoxy)phenyl)-2-(2-morpholinoacetamido)propanamide] | ≤ 300
COCCC(=O)N1C[C@H](Cc2ccccc2)C[C@H]1C(=O)Nc1ccc(Oc2ccc(F)cc2)cc1 [Compound 90, (2S,4R)-4-benzyl-N-(4-(4-fluorophenoxy)phenyl)-1-(3-methoxypropanoyl)pyrrolidine-2-carboxamide] | ≤ 300
O=C(CCCc1ccccc1)NC(COCc1ccccc1)C(=O)Nc1ccc(Oc2ccccc2)cc1 (stereo not drawn) [Compound 300, N-(2-oxo-1-{[(phenylmethyl)oxy]methyl}-2-{[4-(phenyloxy)phenyl]amino}ethyl)-4-phenylbutanamide] | > 1000
O=C(Cn1cncn1)N[C@@H](COCc1ccc(F)cc1)C(=O)Nc1ccc(Oc2ccc(F)cc2)cc1 [Compound 135, (S)-2-(2-(1H-1,2,4-triazol-1-yl)acetamido)-3-(4-fluorobenzyloxy)-N-(4-(4-fluorophenoxy)phenyl)propanamide] | ≤ 300
O=C(NC(COCc1ccccc1)C(=O)Nc1ccc(Oc2ccccc2)cc1)c1ccccc1Cl (stereo not drawn) [Compound 274, 2-chloro-N-(2-oxo-1-{[(phenylmethyl)oxy]methyl}-2-{[4-(phenyloxy)phenyl]amino}ethyl)benzamide] | > 1000
COc1ccc(CCC(=O)N[C@@H](COCc2ccccc2)C(=O)Nc2ccc(Oc3ccc(F)cc3)cc2)cc1Cl [Compound 81, (S)-3-(benzyloxy)-2-(3-(3-chloro-4-methoxyphenyl)propanamido)-N-(4-(4-fluorophenoxy)phenyl)propanamide] | > 1000
O=C(CN1CCCC2CCCCC21)N[C@@H](COCc1ccccc1)C(=O)Nc1ccc(Oc2ccc(F)cc2)cc1 (stereo partly drawn) [Compound 45, (2S)-3-(benzyloxy)-N-(4-(4-fluorophenoxy)phenyl)-2-(2-(octahydroquinolin-1(2H)-yl)acetamido)propanamide] | > 1000
O=C(CCC(=O)c1ccccc1)NC(COCc1ccccc1)C(=O)Nc1ccc(Oc2ccccc2)cc1 (stereo not drawn) [Compound 349, 4-oxo-N-(2-oxo-1-{[(phenylmethyl)oxy]methyl}-2-{[4-(phenyloxy)phenyl]amino}ethyl)-4-phenylbutanamide] | 300 to 1000
Cc1ccccc1C[C@@H]1C[C@@H](C(=O)Nc2ccc(Oc3ccc(F)cc3)cc2)N(C(=O)Cn2nccn2)C1 [Compound 48, (2S,4R)-1-(2-(2H-1,2,3-triazol-2-yl)acetyl)-N-(4-(4-fluorophenoxy)phenyl)-4-(2-methylbenzyl)pyrrolidine-2-carboxamide] | ≤ 300
O=C(CN1CCN(Cc2c(F)cccc2Cl)CC1)N[C@@H](COCc1ccccc1)C(=O)Nc1ccc(Oc2ccc(F)cc2)cc1 [Compound 239, (S)-3-(benzyloxy)-2-(2-(4-(2-chloro-6-fluorobenzyl)piperazin-1-yl)acetamido)-N-(4-(4-fluorophenoxy)phenyl)propanamide] | ≤ 300
O=C(Nc1ccc(Oc2ccc(F)cc2)cc1)[C@@H]1C[C@@H](Cc2c(F)cc(F)cc2F)CN1C(=O)Cn1ccnn1 [Compound 170, (2S,4R)-1-(2-(1H-1,2,3-triazol-1-yl)acetyl)-N-(4-(4-fluorophenoxy)phenyl)-4-(2,4,6-trifluorobenzyl)pyrrolidine-2-carboxamide] | ≤ 300
CC1CCCN1CC(=O)N[C@@H](COCc1ccccc1)C(=O)Nc1ccc(Oc2ccc(F)cc2)cc1 (stereo partly drawn) [Compound 63, (2S)-3-(benzyloxy)-N-(4-(4-fluorophenoxy)phenyl)-2-(2-(2-methylpyrrolidin-1-yl)acetamido)propanamide] | > 1000
CC1CN(CC(=O)N[C@@H](COCc2ccccc2)C(=O)Nc2ccc(Oc3ccc(F)cc3)cc2)CC(C)O1 (stereo partly drawn) [Compound 265, (2S)-3-(benzyloxy)-2-(2-(2,6-dimethylmorpholino)acetamido)-N-(4-(4-fluorophenoxy)phenyl)propanamide] | ≤ 300
O=C(Cc1c[nH]cn1)N[C@@H](COCc1ccc(F)cc1)C(=O)Nc1ccc(Oc2ccc(Cl)cc2)cc1 [Compound 132, (S)-2-(2-(1H-imidazol-5-yl)acetamido)-3-(4-fluorobenzyloxy)-N-(4-(4-chlorophenoxy)phenyl)propanamide] | ≤ 300
O=C(Nc1ccc(Oc2ccc(F)cc2)cc1)[C@@H]1C[C@@H](Cc2ccccc2)CN1C(=O)CO [Compound 120, (2S,4R)-4-benzyl-N-(4-(4-fluorophenoxy)phenyl)-1-(2-hydroxyacetyl)pyrrolidine-2-carboxamide] | ≤ 300
O=C(Cc1cccc(Cl)c1)NC(COCc1ccccc1)C(=O)Nc1ccc(Oc2ccccc2)cc1 (stereo not drawn) [Compound 377, N-(2-oxo-1-{[(phenylmethyl)oxy]methyl}-2-{[4-(phenyloxy)phenyl]amino}ethyl)-2-(3-chlorophenyl)acetamide] | 300 to 1000
O=C(NC(COCc1ccccc1)C(=O)Nc1ccc(Oc2ccccc2)cc1)C1CCOC1 (stereo not drawn) [Compound 336, N-(2-oxo-1-{[(phenylmethyl)oxy]methyl}-2-{[4-(phenyloxy)phenyl]amino}ethyl)tetrahydrofuran-3-carboxamide] | ≤ 300
